# Results reported in US12214076B2, “Drug delivery vehicles for atherosclerosis nanomedicine” (Northwestern University, priority 2019, dated 2025).
# Peptide text beside a SMILES is read from it. * marks the point of attachment. Palmitoyl = CCCCCCCCCCCCCCCC(=O)*
# Legend:
# Type in all cases: cell-based, mouse
# [1] = test system: J774.2 murine macrophages; experiment: Nitric oxide production of stimulated macrophages; conditions: 24 hours, LPS and stimulated, 32 μM Ac2-26 or epitope equivalent
# Description: Macrophage culture and characterization: J774.2 murine macrophages (Sigma-Aldrich) were expanded at 4-9×10^5 cells/mL in growth media consisting of Dulbecco's Modified Eagle's Medium (Sigma-Aldrich) containing 4.5 g/L glucose, 2 mM L-glutamine, 10% v/v FBS, 100 U/m penicillin, and 100 μg/mL streptomycin. Cells were passaged using Accutase™ (StemCell Technologies) and used at passage 6-9 for all experiments. The cells were detached with Accutase™ and gentle scraping, counted, and re-suspended in flow cytometry buffer containing 2% w/v bovine serum albumin (BSA, heat shock fraction free of proteases, globulin, and fatty acids, Sigma-Aldrich) and 0.1% w/v sodium azide (Sigma-Aldrich). To minimize non-specific binding of immunoglobin to Fc receptors, macrophages were incubated with anti-mouse CD16/32 antibody (TrueStain FcX™, Biolegend) at 1 μg/1×10^5 cells for 10 minutes at 4° C. APC anti-mouse CD11b antibody or APC Armenian hamster IgG isotype control antibody (Biolegend) were added at 0.4 μg/1×10^5 cells, FPR2 antibody (Novus Biologics) was added at […], and all samples were incubated for 30 minutes at 4° C. The cells were washed once with flow cytometry buffer by centrifugation at 300×g. FPR2 samples were further treated with goat anti-rabbit Alexa Fluor 488 secondary antibody (Invitrogen) at 2 μg/1×10^5 cells for 20 minutes at 4° C., followed by a wash step. Unstained macrophages served as controls and contained 7AAD viability staining solution (Biolegend) at 0.1 μg/1×10^5. All samples were suspended in 4% paraformaldehyde (Electron Microscopy Sciences) in PBS until analysis. […] All samples were analyzed using Attune NxT Acoustic Focusing Cytometer (Thermo Fisher) with at least 2000 events counted per condition.
# Therapeutic effects of ApoA1-Ac2-26 PAs: 10% ROS- and MMP-Ac2-26 PAs, as well as Ac2-26 peptide were added together with 10 μg/mL LPS at 32 μM Ac2-26 to macrophages. […] Concerning the quantification of NO, the reducing solution made of KI in acetic acid and water provides an excess of I− that reacts with nitrite yielding ·NO. […]
# [2] = test system: inducible nitric oxide synthase (iNOS); experiment: iNOS expression by flow cytometry; conditions: vs. stimulated control
# [3] = test system: J774.2 macrophage; experiment: Cytocompatibility, MUSE Count and Viability Assay (Example 2); conditions: 24 hours of treatment, 32 μM Ac2-26
# Description: Macrophage culture and characterization: J774.2 murine macrophages (Sigma-Aldrich) were expanded at 4-9×10^5 cells/mL in growth media consisting of Dulbecco's Modified Eagle's Medium (Sigma-Aldrich) containing 4.5 g/L glucose, 2 mM L-glutamine, 10% v/v FBS, 100 U/m penicillin, and 100 μg/mL streptomycin. Cells were passaged using Accutase™ (StemCell Technologies) and used at passage 6-9 for all experiments. The cells were detached with Accutase™ and gentle scraping, counted, and re-suspended in flow cytometry buffer containing 2% w/v bovine serum albumin (BSA, heat shock fraction free of proteases, globulin, and fatty acids, Sigma-Aldrich) and 0.1% w/v sodium azide (Sigma-Aldrich). To minimize non-specific binding of immunoglobin to Fc receptors, macrophages were incubated with anti-mouse CD16/32 antibody (TrueStain FcX™, Biolegend) at 1 μg/1×10^5 cells for 10 minutes at 4° C. […] All samples were analyzed using Attune NxT Acoustic Focusing Cytometer (Thermo Fisher) with at least 2000 events counted per condition.
# Cytocompatibility: Macrophages were seeded at 2.1×10^5 cells/cm^2 on 24 well plates and treated with 32 μM of Ac2-26 or 320 μM PA co-assemblies (final Ac2-26 concentration of 32 μM) for 24 hours. […] Cells were detached by Accutase treatment for 20 minutes and counted using a MUSE® Count and Viability Assay Kit and cytometer (Emd millipore).
Compound,"macrophage activation, nitric oxide production relative to the stimulated control [1]",intracellular iNOS expression of stimulated macrophages [2],J774.2 macrophage viability [3]
"10% MMP-Ac2-26 PA: co-assembly of 10 mol % MMP-Ac2-26 PA, 50 mol % E2 filler PA, and 40% ApoA1 PA (VVAAEEGGGPQGIWGQGKAMVSEFLKQAWFIENEEQEYVQTVK)",significantly reduced,no effect upon iNOS expression,No significant differences
CCCCCCCCCCCCCCCC(=O)N[C@H](C(=O)N[C@H](C(=O)N[C@@H](C)C(=O)N[C@@H](C)C(=O)N[C@@H](CCC(=O)O)C(=O)N[C@@H](CCC(=O)O)C(=O)NCC(=O)N[C@@H](CC(=O)O)C(=O)N[C@@H](Cc1c[nH]c2ccccc12)C(=O)N[C@@H](Cc1ccccc1)C(=O)N[C@@H](CCCCN)C(=O)N[C@@H](C)C(=O)N[C@@H](Cc1ccccc1)C(=O)N[C@@H](Cc1ccc(O)cc1)C(=O)N[C@@H](CC(=O)O)C(=O)N[C@@H](CCCCN)C(=O)N[C@H](C(=O)N[C@@H](C)C(=O)N[C@@H](CCC(=O)O)C(=O)N[C@@H](CCCCN)C(=O)N[C@@H](Cc1ccccc1)C(=O)N[C@@H](CCCCN)C(=O)N[C@@H](CCC(=O)O)C(=O)N[C@@H](C)C(=O)N[C@@H](Cc1ccccc1)C(N)=O)C(C)C)C(C)C)C(C)C [ApoA1 PA] (Palmitoyl-VVAAEEGDWFKAFYDKVAEKFKEAF-NH2),did not cause significant decreases in nitric oxide production,,
